Results on four compounds are retold here after patent US20260083674A1, “OXAZOLIDINONE LIPOSOME COMPOSITIONS” (priority 2021, published 2026).

For orientation: MIC means the lowest concentration found to suppress growth. By IC50 is commonly meant the concentration that inhibits the measured activity by half.

In data set [1] the test system is M.tb H37Rv. The data set can be described thus: Broth microdilution MIC with Alamar blue endpoint (MABA), M.tb H37Rv. It is filed as cell-based. The settings on record: Mycobacterium tuberculosis, read-out: MIC (H37Rv).
Data set [2] concerns methicillin resistant Staphylococcus aureus (MRSA) 880 NR-49120. In words: MIC against MRSA strain 880 NR-49120. The following applies: read-out: MRSA MIC, strain 880 NR-49120.
Data set [3] relates to human hepatocyte/liver (HepG2; ATCC #HB8065) cells. The data set can be described thus: In vitro cytotoxicity (PrestoBlue cell viability), HepG2 cells. The following applies: HepG2, 72 h, read-out: Cell viability IC50, HepG2.
Procedure: (§1) Data is reported out as the full cell viability curve, as well as a calculation of the actual IC50 value for each compound.
(§2) Adherent cells were grown to ˜80% confluency. […] The cell density was determined using a hemocytometer.
(§3) These compounds were provided as sterile aqueous solutions of HCl salts with a concentration of 5 mg/ml. For making dilutions, each drug stock was warmed to room temperature, vortexed and was visually inspected for precipitation. If solid drug was present, the stock was heated on a 60° C. water bath and then allowed to cool to near room temperature. Based on the treatment concentrations, 20× working stocks were made by serial dilution.
(§4) At the end of the compound incubation period, replace the media in each well with 100 μl of 1× PrestoBlue Cell Viability Reagent (ThermoFisher Cat #A13261). Incubate the plate at 37° C. in a humidified incubator with 5% CO2 30 min to 2 h. […] Read fluorescence with 560 nm excitation and 590 nm emission using SpectraMax M5 plate reader (Molecular Devices). Correct background by subtracting the RFU of the control containing only the culture medium (background control well) from all sample readings. Calculate the percentage of cytotoxicity using the formula below:
(§5) The IC50 was determined using GraphPad Prism using the following formula:
Data set [4] deals with methicillin resistant Staphylococcus aureus (MRSA) ATCC 43300. In words: MIC against MRSA strain ATCC 43300. The following applies: read-out: MRSA MIC, strain ATCC 43300.
The test system of data set [5] is methicillin resistant Staphylococcus aureus (MRSA) ATCC BAA-1556. The data set can be described thus: MIC against MRSA strain ATCC BAA-1556. The following applies: ATCCBAA1556|MRSA.
Data set [6] concerns mitochondrial protein synthesis vs H37Rv M. tuberculosis. The data set can be described thus: MPS selectivity index (MPS IC50 / MIC H37Rv).
For data set [7], the system named is African green monkey kidney (Vero; ATCC #CCL81) cells. The data set can be described thus: In vitro cytotoxicity (PrestoBlue cell viability), Vero cells. The following applies: Chlorocebus sabaeus, 72 h, read-out: Cell viability IC50, VERO.
Procedure: as §1, §2, §3, §4, §5
The test system of data set [8] is mitochondrial protein synthesis (COX-1/SDH-A) in H9C2 rat heart myoblast cells. In words: Inhibition of mitochondrial protein synthesis (MitoBiogenesis in-cell ELISA, COX-1/SDH-A). The following applies: H9c2, 120 h, read-out: MPS IC50.
Procedure: Inhibition of mitochondrial protein synthesis was determined using a colorimetric MitoBiogenesis™ in-cell ELISA kit from AbCam (Catalog #ab11021), as per the manufacturer's instructions. […] The levels of two mitochondrial proteins were measured simultaneously, including the mitochondrial DNA-encoded subunit I of Complex IV (COX-1) and the nuclear DNA-encoded 70 kDa subunit of Complex II (SDH-A). The H9C2 rat BDIX heart myoblast cell line was used in these studies in a 384 well plate assay format. Cells were grown in DMEM media with 10% FBS and 1×Glutamine at 37° C. and 5% CO2. […] Ten concentrations of each compound, starting at a high concentration of 200 μM and including nine 3-fold dilutions and one replicate per condition, were added to the cells in 2.5 μl and incubated with the cells for five days at 37° C. and 5% CO2.
COX-I and SDH-A signals were plotted as a ratio of COX-1/SDH-A against concentration of each compound, and the IC50 were calculated for each of the 9 investigational compounds and two controls.
The nature of data set [9]: Liposome loading: encapsulated drug-to-lipid ratio and encapsulation efficiency. It is filed as physicochemical. The following applies: for maximum drug load: HSPC/Chol 3:2, 0.5 mol % PEG-DSG (Example 14). The procedure: 1. The lipid components (phospholipid (PhL), cholesterol, and optionally—a PEG-lipid derivative and/or a lipid fluorescent label were combined in an amount of 100% ethanol equal to one-tenth of a volume (V) calculated to obtain lipid suspension with about 60 mM phospholipid and stirred at the temperature of 65-68° C. until complete dissolution of the lipids.
2. The ethanolic lipid solution was combined with volume V of the trapping agent solution (0.25-0.5 M ammonium sulfate or 1 N triethylammonium sucrose octasulfate) upon stirring at 65-68° C. until a uniform suspension was obtained.
3. The lipid suspension was extruded at least three times through a stack of track-etched polycarbonate membranes, typically, two or four membranes with the nominal pore size of 100 nm and one with the nominal pore size 200 nm (Whatman Nuclepore, USA), using a thermobarrel extruder (Lipex, Canada) at 65-68° C., at the pressure of 400-450 psi. When two 100-nm membranes were used in a 100-ml Lipex extruder, the extrusion pressure was typically 260-300 psi. The resulting liposomes have Z-average particle size (diameter) Xz between about 80 and about 130 nm, and PDI less than 0.1.
5. An aliquot of the extruded, filtered liposome suspension so made was chromatographed on a gravity-fed Sepharose CL-4B size exclusion column (eluent-Type 1 water), to purify the liposomes from extraliposomal trapping agent. The purified liposomes were collected near the void volume fraction of the column. For a scale-up studies, this step was performed using a tangential flow filtration (TFF) on a hollow fiber cartridge (Repligen Spectrum MicroKros PS or mPES membrane with MWCO of 500 KDa) effecting 8-10 volume exchanges (or until the conductivity of the liposome suspension dropped below 200 μS/cm) with Type 1 or USP “Water for injection” endotoxin-free water.
6. The lipid concentration in a purified extruded liposome preparation was determined using HPLC with UV detection, by measuring the concentration of cholesterol and correcting for the known phospholipid/cholesterol molar ratio. Alternatively, a spectrophotometric blue phosphomolybdate method was used to directly quantify the phospholipid content.
7. The drug was dissolved in Type 1 or endotoxin-free pure water in the form of a hydrochloric acid salt (e.g., AKG-3 and AKG-5 were used as monohydrochloride, AKG-28 and AKG-29 were used as dihydrochloride) at the concentration of 5-20 mg/ml of the drug. To the drug prepared in free base form (e.g., AKG-16, AKG-38), an equivalent amount of HCl was added. If necessary, pH of the solution was brought between pH 2.5-5.5, using 1 N NaOH, HCL, or tris(hydroxymethyl)aminomethane (Tris)-base solution, and the solution was filtered through a 0.2-micron PES filter under positive pressure. When necessary, the drug concentration in the stock solution so made was verified by HPLC with UV detection at 305 nm.
8. Purified liposomes of step 5 and the drug stock solution were combined in the presence of an osmotic agent (typically dextrose) and water in the amounts necessary to provide a desired drug-to-phospholipid (DL) ratio, the drug concentration in the range 1.5-3.3 mg/ml, at the osmolality equal to the measured osmolality of the trapping agent solution of step 2. Optionally, a buffer at a desired pH (typically pH 4 to pH 7) was added. In some instances, the amount of added osmotic agent (e.g., dextrose at about 45 g/L) provided osmolality less that the measured osmolality of the trapping agent solution, and the loading was effected at 6-8 mg/ml of the drug.
9. The drug-liposome mixture was incubated with constant agitation at 65-68° C. for about 15-20 min and quickly chilled on ice. After 5-10 min, the mixture was allowed to reach ambient temperature an adjusted to 0.1M NaCl by adding a calculated amount of 3 M NaCl stock solution.
10. […] The liposome fractions were collected near the column void volume. […]

Data set [10] is classed as physicochemical. The method, then: To the resulting cake or syrup, water was added typically to the final 10 mg/ml, and complete dissolution was observed. […] Aqueous solubility of the compounds of the present disclosure is illustrated by the following observations of obtaining visually clear solutions: […]
For data set [11] the following is noted: male, Sprague-Dawley, rat, in vivo, po, 50 mg/kg.
Procedure: For plasma drug measurements, 0.5 ml blood was collected in lithium heparin tubes at 5 min, 15 min, 1 h, 3 h, 6 h, 24 h, 48 h, and 72 h. The samples were centrifuged and the resultant plasma was separated and transferred to duplicate clear polypropylene tubes, frozen immediately over dry ice, and stored at −80° C. until analysis. The plasma concentration in rats was determined by HPLC. Non-compartment PK analyses were performed using Phoenix WinNonlin (Version 7.0).
The test system of data set [12] is M. tuberculosis Erdman. The settings on record: eight weeks, Balb/c and C3HeB/FeJ mice; cited from earlier work.
Data set [13] concerns methicillin resistant Staphylococcus aureus (MRSA) ATCC BAA-1556. The following applies: cited from earlier work.

SMILES strings stand for the structures. Values after ≈ are worked out from the molar mass of the structure shown. Like-named read-outs stand apart in the source and are kept apart here. Some results are limits rather than exact numbers.

Take `CN(C)CCCn1nnc(-c2ccc(-c3ccc(N4C[C@H](CN)OC4=O)cc3F)cn2)n1.Cl` (stereo in doubt) [AKG-30]: the MIC is 0.125 µg/mL in data set [1]; over 50 µg/mL in data set [2]; over 50 µg/mL in [4]; over 50 µg/mL in [5] (read-out: MIC against the three MRSA strains); over 50 µg/mL in data set [5] (read-out: MRSA MIC, strain ATCC BAA-1556). The IC50 came out at 18.9 µg/mL in data set [3], 110 µg/mL in [7] and 0.252 µg/mL in data set [8]. Also, the “SI-MPS MPS/H37” value in [6] came out at 2.02.

Take `CC(=O)NC[C@H]1CN(c2ccc(-c3ccc(-c4nnn(CCN(C)C)n4)nc3)c(F)c2)C(=O)O1` [AKG-38]: the maximum drug load in data set [9] (0.5 M AS) is recorded as 818-842 g/mol PhL; in data set [9] (1 N TEA-SOS) it was 989 g/mol PhL. The drug load in data set [9] (30 mol % cholesterol, 5 mol % PEG-DSG, 1 N TEA-SOS) was determined as 462.4 g/mol PhL. The “Concentration % (w/w) of free base, visually clear solution” value in data set [10] was 7.1 % (w/w). Moreover, the figures for the concentration for half-maximal inhibition (IC50) in data set [3], in [7] and in [8] were 97 µg/mL (≈ 207 µM), at least 395 µg/mL and 0.041 µg/mL (≈ 0.0875 µM), respectively.

As for `CC(=O)NC[C@H]1CN(c2ccc(N3CCOCC3)c(F)c2)C(=O)O1` [Linezolid], the AUC0-last/Dose in data set [11] is 5.64 [hr*μg/mL]/[mg/kg]. Moreover, the “log 10 CFU counts, linezolid monotherapy (Lanoix et al.)” value in data set [12] is 4-6 log 10 CFU.

With `Cn1nnc(-c2ccc(-c3ccc(N4C[C@H](CO)OC4=O)cc3F)cn2)n1` [Tedizolid, reference compound], the “MIC described in U.S. Pat. No. 7,816,379” value in [13] is 0.5 µg/mL (≈ 1.35 µM). Moreover, in [6], the “SI-MPS MPS/H37” value is reported as 0.57.
